Data taken from PubChem BioAssay (NCI).
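Each compound was tested at five concentrations against cells in 96-well plates for 48 hours. TGI is the concentration that stops growth completely.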

Experiments:
Assay in all cases: growth of human tumour cells (NCI), 48 h
[1] = system: 786-0 renal
[2] = system: A498 renal
[3] = system: A549 NSCLC
[4] = system: ACHN renal
[5] = system: BT-549 breast
[6] = system: CCRF-CEM leukemia
[7] = system: COLO 205 colon
[8] = system: DU-145 prostate
[9] = system: HCC-2998 colon
[10] = system: HCT-116 colon
[11] = system: HCT-15 colon
[12] = system: HL-60(TB) leukemia
[13] = system: HOP-62 NSCLC
[14] = system: HOP-92 NSCLC
[15] = system: HS 578T breast
[16] = system: HT29 colon
[17] = system: IGROV1 ovarian
[18] = system: K-562 leukemia
[19] = system: KM12 colon
[20] = system: LOX IMVI melanoma
[21] = system: M14 melanoma
[22] = system: MALME-3M melanoma
[23] = system: MDA-MB-231 breast
[24] = system: MDA-N
[25] = system: MOLT-4 leukemia
[26] = system: NCI-H226 lung
[27] = system: NCI-H23 lung
[28] = system: NCI-H460 lung
[29] = system: NCI-H522 lung
[30] = system: NCI/ADR-RES ovarian
[31] = system: OVCAR-3 ovarian
[32] = system: OVCAR-4 ovarian
[33] = system: OVCAR-5 ovarian
[34] = system: PC-3 prostate
[35] = system: RPMI-8226 leukemia
[36] = system: RXF 393 renal
[37] = system: SF-268 CNS
[38] = system: SF-295 CNS
[39] = system: SF-539 CNS
[40] = system: SK-MEL-2 melanoma
[41] = system: SK-MEL-28 melanoma
[42] = system: SK-MEL-5 melanoma
[43] = system: SK-OV-3 ovarian
[44] = system: SN12C renal
[45] = system: SNB-19 CNS
[46] = system: SNB-75 CNS
[47] = system: SR leukemia
[48] = system: SW-620 colon
[49] = system: T-47D breast
[50] = system: TK-10 renal
[51] = system: U251 CNS
[52] = system: UACC-257 melanoma
[53] = system: UACC-62 melanoma
[54] = system: UO-31 renal
[55] = system: CAKI-1 renal
[56] = system: EKVX NSCLC
[57] = system: MCF7 breast
[58] = system: OVCAR-8 ovarian
[59] = system: MDA-MB-435

CS(=O)(=O)c1ccc(NNc2cc(=O)[nH]c(=O)[nH]2)cc1
TGI [1]: > 100 µM | TGI [2]: > 100 µM | TGI [3]: > 100 µM | TGI [4]: > 100 µM | TGI [5]: > 100 µM | TGI [6]: > 100 µM | TGI [7]: > 100 µM | TGI [8]: > 100 µM | TGI [9]: > 100 µM | TGI [10]: > 100 µM | TGI [11]: > 100 µM | TGI [12]: > 100 µM | TGI [13]: > 100 µM | TGI [14]: > 100 µM | TGI [15]: > 100 µM | TGI [16]: > 100 µM | TGI [17]: > 100 µM | TGI [18]: > 100 µM | TGI [19]: > 100 µM | TGI [20]: > 100 µM | TGI [21]: > 100 µM | TGI [22]: > 100 µM | TGI [23]: > 100 µM | TGI [24]: > 100 µM | TGI [25]: > 100 µM | TGI [26]: > 100 µM | TGI [27]: > 100 µM | TGI [28]: > 100 µM | TGI [29]: 40.2 µM | TGI [30]: > 100 µM | TGI [31]: > 100 µM | TGI [32]: > 100 µM | TGI [33]: > 100 µM | TGI [34]: > 100 µM | TGI [35]: > 100 µM | TGI [36]: > 100 µM | TGI [37]: > 100 µM | TGI [38]: > 100 µM | TGI [39]: > 100 µM | TGI [40]: > 100 µM | TGI [41]: > 100 µM | TGI [42]: > 100 µM | TGI [43]: > 100 µM | TGI [44]: > 100 µM | TGI [45]: > 100 µM | TGI [46]: > 100 µM | TGI [47]: > 100 µM | TGI [48]: > 100 µM | TGI [49]: > 100 µM | TGI [50]: 9.34 µM | TGI [51]: > 100 µM | TGI [52]: > 100 µM | TGI [53]: > 100 µM | TGI [54]: > 100 µM

CC(=O)O[C@H]1C(=O)[C@@]2(C)[C@H]([C@H](OC(=O)C3CCCCC3)[C@]3(O)C[C@H](OC(=O)[C@H](O)[C@@H](NC(=O)OC(C)(C)C)c4ccccc4)C(C)=C1C3(C)C)[C@]1(OC(C)=O)CO[C@@H]1C[C@@H]2O
TGI [1]: > 7.61 µM | TGI [3]: > 12.5 µM | TGI [4]: > 12.5 µM | TGI [5]: 0.46 µM | TGI [55]: > 12.5 µM | TGI [6]: > 8.82 µM | TGI [7]: 0.144 µM | TGI [56]: > 12.5 µM | TGI [9]: 0.248 µM | TGI [10]: > 4.97 µM | TGI [11]: > 12.5 µM | TGI [12]: 0.00365 µM | TGI [14]: 0.575 µM | TGI [15]: 0.741 µM | TGI [16]: > 6.33 µM | TGI [17]: > 12.5 µM | TGI [18]: > 12.5 µM | TGI [19]: > 12.5 µM | TGI [20]: > 11.9 µM | TGI [21]: 0.117 µM | TGI [22]: 5.07 µM | TGI [57]: 0.0879 µM | TGI [23]: > 6.31 µM | TGI [24]: 0.0173 µM | TGI [25]: 0.337 µM | TGI [26]: > 12.5 µM | TGI [27]: > 9.76 µM | TGI [28]: > 5.2 µM | TGI [29]: 0.22 µM | TGI [30]: > 5.94 µM | TGI [31]: 0.019 µM | TGI [32]: > 12.5 µM | TGI [33]: 0.0701 µM | TGI [58]: > 12.5 µM | TGI [34]: > 12.5 µM | TGI [35]: 0.432 µM | TGI [36]: 2.15 µM | TGI [37]: > 12.5 µM | TGI [38]: 0.165 µM | TGI [39]: 0.0571 µM | TGI [40]: 5.15 µM | TGI [41]: > 9.82 µM | TGI [42]: > 3.99 µM | TGI [43]: > 12.5 µM | TGI [44]: > 11.5 µM | TGI [45]: > 12.5 µM | TGI [46]: > 12.5 µM | TGI [47]: > 12.5 µM | TGI [48]: > 12.5 µM | TGI [49]: > 12.5 µM | TGI [50]: > 10.1 µM | TGI [51]: > 12.5 µM | TGI [52]: > 12.5 µM | TGI [53]: > 2.47 µM | TGI [54]: > 12.5 µM

O=C(O)c1ccccc1/C=C1\Cc2ccccc2C1=O
TGI [1]: > 100 µM | TGI [2]: > 100 µM | TGI [3]: > 100 µM | TGI [4]: > 100 µM | TGI [5]: > 100 µM | TGI [55]: > 100 µM | TGI [6]: > 100 µM | TGI [7]: > 100 µM | TGI [8]: > 100 µM | TGI [56]: > 100 µM | TGI [9]: > 100 µM | TGI [10]: > 100 µM | TGI [11]: > 100 µM | TGI [12]: > 100 µM | TGI [13]: > 100 µM | TGI [15]: > 100 µM | TGI [16]: > 100 µM | TGI [17]: > 100 µM | TGI [18]: > 100 µM | TGI [19]: > 100 µM | TGI [20]: > 100 µM | TGI [21]: > 100 µM | TGI [22]: > 100 µM | TGI [57]: > 100 µM | TGI [59]: > 100 µM | TGI [24]: > 100 µM | TGI [25]: > 100 µM | TGI [26]: > 100 µM | TGI [27]: > 100 µM | TGI [28]: > 100 µM | TGI [29]: > 100 µM | TGI [30]: > 100 µM | TGI [31]: > 100 µM | TGI [32]: > 100 µM | TGI [33]: > 100 µM | TGI [58]: > 100 µM | TGI [34]: > 100 µM | TGI [35]: > 100 µM | TGI [36]: > 100 µM | TGI [37]: > 100 µM | TGI [38]: > 100 µM | TGI [39]: > 100 µM | TGI [40]: > 100 µM | TGI [41]: > 100 µM | TGI [42]: > 100 µM | TGI [44]: > 100 µM | TGI [45]: > 100 µM | TGI [46]: > 100 µM | TGI [47]: > 100 µM | TGI [48]: > 100 µM | TGI [49]: > 100 µM | TGI [50]: > 100 µM | TGI [51]: > 100 µM | TGI [52]: > 100 µM | TGI [53]: > 100 µM | TGI [54]: > 100 µM
